The results in this text go back to patent EP1003775B1, “HEPATITIS C INHIBITOR PEPTIDES” (BOEHRINGER INGELHEIM (CANADA) LTD., priority 1997, dated 2005).

The test concerns NS3 protease. Briefly: HCV NS3 protease inhibition (recombinant NS3 protease radiometric assays). The conditions noted are these: qualitative statement. Type of test: biochemical, hepatitis C virus. How it is done:
The substrate used for the HCV NS3 protease radiometric assay, DDIVPC-SMSYTW, is cleaved between the cysteine and the serine residues by the enzyme. The sequence DDIVPC-SMSYTW corresponds to the NS5A/NS5B natural cleavage site in which the cysteine residue in P2 has been substituted for a proline. The peptide substrate DDIVPC-SMSYTW and the tracer biotin-DDIVPC-SMS[^125I-Y]TW were incubated with the recombinant NS3 protease in the absence or in the presence of inhibitors. The separation of substrate from products was performed by adding avidin-coated agarose beads to the assay mixture followed by filtration. The amount of SMS [^125I-Y]TW product found in the filtrate (with or without inhibitor) allowed for the calculation of the percentage of substrate conversion and of the percentage of inhibition.
The assay was performed in a 96-well polypropylene plate. Each well contained: • 20 µL substrate/tracer in assay buffer; • 10 µL ± inhibitor in 20% DMSO/assay buffer; • 10 µL NS3 protease 1b. […]
The filtrates were counted on a Packard® TopCount instrument using a ^125I-liquid protocol for 1 minute. The %inhibition was calculated with the following equation: 100- [(countsinh -countsblank ) / (countsctl -countsblank ) x 100] […]
The value of IC50 was calculated in the same manner as in Example 19.

Consider Ac-DDIVPC-OH [Ac-D-D-I-V-P-C-OH], for which the “inhibition of the NS3 protease” value is “inhibitory”.
